Results reported in patent publication US20100048403A1, “Method of inducing virus tolerance of plants” (BASF SE, priority 2007, published 2010).

Tested on: Cucumber Green Mottle Mosaic Virus (CGMMV)
Assay: Symptom expression of CGMMV in cucumbers treated 7 days before mechanical inoculation
Format: in vivo
Details: cucumber plants, 500 g product in 200 litres water sprayed to run-off 7 days before inoculation
Procedure: The experiment tested the effect of boscalid (as Filan®) on the symptom expression of CGMMV in cucumbers. Cucumber plants were treated with Filan or water 7 days before mechanical inoculation with CGMMV. Filan® was applied at 500 g in 200 litres water. Sprays were applied as a fine spray to run-off.
The experiment consisted of 5 plants per each treatment, with three replicates arranged randomly after fungicide treatment, but before inoculation. Plants were then inoculated in situ. Plants were mechanically inoculated at the 4-6 true leaf stage. Cucumber leaves showing symptoms and confirmed by CSL as infected with CGMMV were used as the source of inoculum. Several infected leaves were crushed in a plastic bag with a small amount of distilled water to extract the sap. This sap was then gently rubbed onto the second lowest green leaf of each plant in the experiment. Symptoms of CGMMV were assessed at intervals following inoculation.

SMILES: O=C(Nc1ccccc1-c1ccc(Cl)cc1)c1cccnc1Cl [Boscalid, boscalid]
- Number of leaves with symtoms, 8 days after inoculation (Average) (8 days after inoculation, untreated 2.4): 0.8
- Number of leaves with symtoms, 33 days after inoculation (Average) (33 days after inoculation, untreated 7.4): 4.4
